From patent US5438052A, “Cephalosporin derivatives” (Hoffmann-La Roche Inc., priority 1991, dated 1995)
Converted amounts (≈) assume the structure as drawn. Counter-ions that a name gives are not always drawn.

Tests used:
C. freundii 902 = assay: Minimum inhibitory concentration in vitro, agar dilution method; type: cell-based; settings: Citrobacter freundii; C. freundii 902, agar dilution; read-out: MIC
Text: (§1) 1. Minimum Inhibitory Concentration in vitro
(§2) The activities ascertained, minimum inhibitory concentration (MIC) in μg/ml, are compiled in Table 1 hereinafter: […]

E. aerogenes CF153 = assay: as above; type: cell-based; settings: Klebsiella aerogenes; E. aerogenes CF153, agar dilution; read-out: MIC
Text: as §1, §2

E. cloacae 908R = assay: as above; type: cell-based; settings: Enterobacter cloacae; E. cloacae 908R, agar dilution; read-out: MIC
Text: as §1, §2

E. cloacae 908SSi = assay: as above; type: cell-based; settings: Enterobacter cloacae; E. cloacae 908SSi, agar dilution; read-out: MIC
Text: as §1, §2

E. cloacae P99 = assay: as above; type: cell-based; settings: Enterobacter cloacae
Text: as §1, §2

E. coli 25922 [1] = assay: as above; type: cell-based; settings: Escherichia coli; E. coli 25922, agar dilution; read-out: MIC
Text: as §1, §2

K. oxytoca 1082 = assay: as above; type: cell-based; settings: Klebsiella oxytoca; K. oxytoca 1082, agar dilution; read-out: MIC
Text: as §1, §2

K. pneumoniae 418 = assay: as above; type: cell-based; settings: Klebsiella pneumoniae; K. pneumoniae 418, agar dilution; read-out: MIC
Text: as §1, §2

P. aeruginosa 27853 = assay: as above; type: cell-based; settings: Pseudomonas aeruginosa; P. aeruginosa 27853, agar dilution; read-out: MIC
Text: as §1, §2

P. aeruginosa 799/61 = assay: as above; type: cell-based; settings: Pseudomonas aeruginosa; P. aeruginosa 799/61, agar dilution; read-out: MIC
Text: as §1, §2

P. aeruginosa 799/WT = assay: as above; type: cell-based; settings: Pseudomonas aeruginosa; P. aeruginosa 799/WT, agar dilution; read-out: MIC
Text: as §1, §2

P. aeruginosa BA = assay: as above; type: cell-based; settings: Pseudomonas aeruginosa; P. aeruginosa BA, agar dilution; read-out: MIC
Text: as §1, §2

P. aeruginosa MK1184 = assay: as above; type: cell-based; settings: Pseudomonas aeruginosa; P. aeruginosa MK1184, agar dilution; read-out: MIC
Text: as §1, §2

P. mirabilis 2117 = assay: as above; type: cell-based; settings: Proteus mirabilis; P. mirabilis 2117, agar dilution; read-out: MIC
Text: as §1, §2

P. vulgaris 1028 = assay: as above; type: cell-based; settings: Proteus vulgaris; P. vulgaris 1028, agar dilution; read-out: MIC
Text: as §1, §2

S. aureus 6538 = assay: as above; type: cell-based; settings: Staphylococcus aureus; S. aureus 6538, agar dilution; read-out: MIC
Text: as §1, §2

S. marcescens 69438 = assay: as above; type: cell-based; settings: Serratia marcescens; S. marcescens 69438, agar dilution; read-out: MIC
Text: as §1, §2

S. pyogenes 15 = assay: as above; type: cell-based; settings: Streptococcus pyogenes; S. pyogenes 15, agar dilution; read-out: MIC
Text: as §1, §2

E. coli 25922 [2] = assay: Experimental systemic septicaemia in the mouse; type: in vivo; settings: Escherichia coli, sc, 96 h; E. coli 25922, albino mice, s.c. 1 and 3 hours after infection, survival after 4 days; read-out: ED50
Protocol: (§3) 2. Experimental systemic septicaemia in the mouse
(§4) An experimental systemic septicaemia was produced in albino mice weighing 16-20 g by intraperitoneally injecting into the experimental animals a sample of a dilute culture of the test organism which had been grown overnight. The sample administered is calculated such that the dosage administered is about 5-100 times greater than the dosage which is required to kill 50% of untreated experimental animals within 48 hours. The bacteria were injected as a suspension in the culture broth. Groups of 5 experimental animals each were used not only for the control, but also for the treatment for each dosage tested. The products in accordance with the invention were administered subcutaneously as a suspension in Tween 80 (2%), whereby the concentrations were chosen such that each experimental animal received 500 μl per administration. The respective concentrations were administered twice, namely 1 and 3 hours after the infection (in the case of P. aeruginosa three times, namely 1, 3 and 5 hours after the infection). The ED50 is that dosage which protects 50% of the experimental animals and was calculated by means of the Probit method on the basis of the survial rate after 4 days following the infection. The ED50 values in mg/kg s.c. (subcutaneous) for representatives of the class of substance in accordance with the invention are given in Table 2 hereinafter.

[3] = tested on: Pseudomonas aeruginosa BA; assay: Experimental systemic septicaemia in the mouse; type: in vivo; settings: sc, 96 h, P. aeruginosa BA, albino mice, s.c. 1, 3 and 5 hours after infection, survival after 4 days, read-out: ED50
Protocol: as §3, §4

SMILES	MIC (C. freundii 902) [µg/mL]	MIC (E. aerogenes CF153) [µg/mL]	MIC (E. cloacae 908R) [µg/mL]	MIC (E. cloacae 908SSi) [µg/mL]	MIC (E. cloacae P99) [µg/mL]	MIC (E. coli 25922 [1]) [µg/mL]	MIC (K. oxytoca 1082) [µg/mL]	MIC (K. pneumoniae 418) [µg/mL]	MIC (P. aeruginosa 27853) [µg/mL]	MIC (P. aeruginosa 799/61) [µg/mL]	MIC (P. aeruginosa 799/WT) [µg/mL]	MIC (P. aeruginosa BA) [µg/mL]	MIC (P. aeruginosa MK1184) [µg/mL]	MIC (P. mirabilis 2117) [µg/mL]	MIC (P. vulgaris 1028) [µg/mL]	MIC (S. aureus 6538) [µg/mL]	MIC (S. marcescens 69438) [µg/mL]	MIC (S. pyogenes 15) [µg/mL]	ED50 (E. coli 25922 [2]) [mg/kg]	ED50 [3] [mg/kg]
Cc1cc(SCC2=C(C(=O)O)N3C(=O)[C@@H](NC(=O)/C(=N\OCc4nc(=O)c(O)c[nH]4)c4csc(N)n4)[C@H]3SC2)n2nc(CNS(=O)(=O)c3ccc(O)c(O)c3)nc2n1 [Example 2, (6R,7R)-7-[(Z)-2-(2-amino-4-thiazolyl)-2-[[(1,4-dihydro-5-hydroxy-4-oxo-2-pyrimidinyl)methoxy]imino]acetamido]-3-[[[2-[(3,4-dihydroxybenzenesulphonamido)methyl]-5-methyl-s-triazolo[1,5-a]pyrimidinyl-7-yl]thio]methyl]-8-oxo-5-thia-1-azabicyclo[4.2.0]oct-2-ene-2-carboxylic acid sodium salt (1:1)]	< 0.1	0.5	1	4	16	< 0.1	4	< 0.25	< 0.1	< 0.1	0.12	< 0.1	0.25	0.25	0.5	32	< 0.25	2	0.3	
Cc1cc(SCC2=C(C(=O)O)N3C(=O)[C@@H](NC(=O)/C(=N\OCc4ccc(O)c(O)c4F)c4csc(N)n4)[C@H]3SC2)n2nc(COC(=O)c3ccc(O)c(O)c3)nc2n1 [Example 9]	< 0.1	< 0.1	0.12 (≈ 0.141 µM)	4 (≈ 4.68 µM)	8 (≈ 9.37 µM)	< 0.1	< 0.1	< 0.1	< 0.1	< 0.1		< 0.1	< 0.1	< 0.1	< 0.1	8 (≈ 9.37 µM)	< 0.1	1 (≈ 1.17 µM)	< 0.05	0.24
Cc1ncc(-c2ccc(O)c(O)c2)c(SCC2=C(C(=O)O)N3C(=O)[C@@H](NC(=O)/C(=N\OC(C)(C)C(=O)NO)c4csc(N)n4)[C@H]3SC2)n1 [Example 19b]	< 0.1	< 0.1	2 (≈ 2.79 µM)	2 (≈ 2.79 µM)	8 (≈ 11.2 µM)	< 0.1	0.5 (≈ 0.698 µM)	< 0.1	0.25 (≈ 0.349 µM)	< 0.1	0.25 (≈ 0.349 µM)	0.5 (≈ 0.698 µM)	8 (≈ 11.2 µM)	0.25 (≈ 0.349 µM)	< 0.1	16 (≈ 22.3 µM)	< 0.1	0.25 (≈ 0.349 µM)	0.78	> 3
